Reference: patent US9475843B2 (Zhejiang University, priority 2015, dated 2016)
≈ marks a conversion by molar mass, not a printed value. Read-outs that look alike come from different tables or passages of the source. No end group written: not given here.

Assays:
[1] = tested on: Porcine macrophage cells (3D4/2 cell line); assay: LPS-induced inflammation in porcine macrophages (cytokine mRNA); format: cell-based; details: FIG. 5
Experimental: Porcine macrophage cells (3D4/2 cell line) were cultured on RPMI-1640 medium with 10% fetal bovine serum, at 37° C. in a 5% CO2 cell incubator, until the cells formed a monolayer with about 80-90% confluency. The cells were counted and plated. The cells were seeded to a 6-well plate at 1×10^6/well, RPMI-1640 complete medium was added, and the cells were cultured to 80% confluency. Then the medium was replaced by fresh serum-free RPMI-1640 medium (2 mL). […] Each group of experiments was repeated for six replications. After incubation for 24 hrs, cells were collected and total RNA was extracted using Trizol. cDNA was obtained by reverse transcription. Relative mRNA expression of IL-6, IL-8 and IL-22 was detected. The relative mRNA expression of IL-22, IL-8 and IL-6 were measured by quantitative fluorescence method. GAPDH gene was used as a internal reference gene.

[2] = tested on: S. choleraesuis CMCC50020
Text: The above results are average of 6 independent experimental repeats.

[3] = tested on: S. typhimurium CMCC50013
Experimental: (§1) Bacteria was inoculated on Mueller-Hinton (MH) agar plate, the inoculated agar plate was inverted to grow single colonies. A single colony was inoculated in 3 mL MH broth, and the broth was cultured with constant shaking at constant temperature until turbid. 30 μL of bacterial suspension was then transferred to 3 mL of fresh MH broth, and the broth was cultured with shaking at constant temperature until OD600≈0.5. 10 μL bacterial suspension was transferred to 10 mL fresh MH broth and then vortexed to mix well. […] In addition, 100 μL of bacterial suspension was added to a well as positive control, and 100 μL of MH broth was added to a well as negative control. Each testing condition and controls was performed with 6 repeats.
(§2) The aforementioned antimicrobial peptides were used as controls in the same experiments described in the second, third, fourth and fifth embodiments.

[4] = tested on: E. coli ATCC25922
Experimental: as §1, §2

[5] = tested on: S. aureus ATCC25923
Experimental: as §1, §2

[6] = tested on: E. coli K 88
Experimental: as §1, §2

[7] = tested on: S. epidermidis ATCC12228
Experimental: as §1, §2

[8] = tested on: P. aeruginosa CMCC27853
Experimental: as §1, §2

[9] = tested on: E. coli EPEC O44:K74
Experimental: as §1, §2

[10] = tested on: S. enteritidis CMCC50041
Experimental: as §1, §2

[11] = tested on: E. coli EPEC O144:K26
Experimental: as §1, §2

[12] = tested on: E. coli EPEC O78:K80
Experimental: as §1, §2

[13] = tested on: E. coli K 12
Experimental: as §1, §2

[14] = tested on: porcine erythrocytes
Experimental: Blood was collected from porcine vena cava with heparin added, and mixed with RPMI1640 medium at a volume ratio of 1:1. After centrifuging with FICOLL-PAQUE™, circular and milky peripheral blood mononuclear cells (PMBCs) were drawn for later use, and erythrocytes at the bottom were collected. The erythrocytes were washed with 1×PBS until the supernatant was colorless. Then the washed erythrocytes were diluted 90-fold (1:89) with 1×PBS to determine hemolysis activity.
Triton X-100 (final concentration 1%) was used as positive control, and 10 uL 1×PBS was used as negative control. Each group was performed with 6 replications. Cells were cultured for 24 hrs at 37° C. in a cell culture incubator, and followed by centrifugation at 1500 rpm for 20 min. Then supernatant was transferred to a new 96-well plate to measure the values of OD at 414 nm and 546 nm using a microplate reader, and ΔOD was calculated. The formula for calculating hemolysis ratio is as follows: hemolysis ratio (%)=100%*(ΔOD treatment group−ΔOD negative control)/(ΔOD positive control−ΔOD negative control).
as §2

[15] = tested on: porcine peripheral mononuclear cells; details: porcine PBMCs, peptide ≦256 μg/mL, 24 hrs
Experimental: Purified PBMCs were diluted to 1×10^6 cells/mL, and cells were seeded with 90 uL per well in a 96-well plate. Further, background control well (100 μL RMPI1640 medium), low level control well (90 μL cell culture+10 μL PBS), and high level control well (90 μL cell culture+10 μL 20% Triton X-100) were also prepared. The 96-well plate was cultured at 37° C. for 2 hrs in a 5% CO2 incubator. […] Each group of experiment (each concentration) was repeated for six replications. After culturing for 24 hrs, 10 μL TritonX-100 (20%) was added to each positive control well, and mixed by pipetting. The plate was further incubated for 15 min. After culturing, the cells were centrifuged at 1500 rpm for 10 min. 60 μL of supernatant was drawn carefully from the center of each well and transferred to corresponding wells of a transparent new 96-well plate. 30 uL of LDH diluent was added to each well. The plate was cultured at room temperature for 30 min with vibration in a dark environment. OD values were recorded at 492 nm and 900 nm using a microplate reader for calculating ΔOD value. […]

SWLSKTAKKLENSAKKRIAIAIQGGPR [CP-1]
effect on LPS-induced inflammation [1]: no effects | MIC ([2]; CMCC50020, 24 h): 8 µg/mL | MIC ([3]; CMCC50013, 24 h): 8 µg/mL | MIC ([4]; ATCC25922, 24 h): 4 µg/mL | MIC ([5]; ATCC25923, 24 h): 128 µg/mL | MIC ([6]; K 88, 24 h): 4 µg/mL | MIC ([7]; ATCC12228, 24 h): 128 µg/mL | MIC ([8]; CMCC27853, 24 h): 16 µg/mL | MIC ([9]; EPEC O44:K74, 24 h): 32 µg/mL | MIC ([10]; CMCC50041, 24 h): 16 µg/mL | MIC ([11]; EPEC O144:K26, 24 h): 128 µg/mL | MIC ([12]; EPEC O78:K80, 24 h): 16 µg/mL | MIC ([13]; K 12, 24 h): 8 µg/mL

VKFFRKLKKSVKEKIGKEFKR [WY-21]
MIC ([2]; S. choleraesuis CMCC50020, 24 hrs at 37° C., MH broth): 16 µg/mL | hemolysis ratio ([14]; peptide 512 μg/mL, 24 hrs at 37° C.): less than 5% | MIC ([3]; S. typhimurium CMCC50013, 24 hrs at 37° C., MH broth): 16 µg/mL | MIC ([4]; E. coli ATCC25922, 24 hrs at 37° C., MH broth): 8 µg/mL | MIC ([5]; S. aureus ATCC25923, 24 hrs at 37° C., MH broth): 8 µg/mL | MIC ([6]; E. coli K 88, 24 hrs at 37° C., MH broth): 8 µg/mL | MIC ([7]; S. epidermidis ATCC12228, 24 hrs at 37° C., MH broth): 32 µg/mL | MIC ([8]; P. aeruginosa CMCC27853, 24 hrs at 37° C., MH broth): 8 µg/mL | MIC ([9]; E. coli EPEC O44:K74, 24 hrs at 37° C., MH broth): 8 µg/mL | MIC ([10]; S. enteritidis CMCC50041, 24 hrs at 37° C., MH broth): 64 µg/mL | MIC ([11]; E. coli EPEC O144:K26, 24 hrs at 37° C., MH broth): 16 µg/mL | MIC ([12]; E. coli EPEC O78:K80, 24 hrs at 37° C., MH broth): 16 µg/mL | MIC ([13]; E. coli K 12, 24 hrs at 37° C., MH broth): 4 µg/mL | LDH releasing rate [15]: less than 10%

CC(C)C[C@H](NC(=O)[C@H](CCCNC(=N)N)NC(=O)CNC(=O)CNC(=O)[C@@H](N)CCCNC(=N)N)C(=O)N[C@H]1CSSC[C@@H](C(=O)N[C@H](C(=O)NCC(=O)N[C@@H](CCCNC(=N)N)C(N)=O)C(C)C)NC(=O)[C@H](C(C)C)NC(=O)[C@@H]2CSSC[C@H](NC(=O)[C@H](Cc3ccc(O)cc3)NC1=O)C(=O)N[C@@H](CCCNC(=N)N)C(=O)N[C@@H](CCCNC(=N)N)C(=O)N[C@@H](CCCNC(=N)N)C(=O)N[C@@H](Cc1ccccc1)C(=O)N2 [PG-1]
MIC ([2]; CMCC50020, 24 h): 4 µg/mL (≈ 1.86 µM) | hemolysis activity (compared with WY-21) ([14]; FIG. 4): higher than WY-21 | MIC ([3]; CMCC50013, 24 h): 4 µg/mL (≈ 1.86 µM) | MIC ([4]; ATCC25922, 24 h): 4 µg/mL (≈ 1.86 µM) | MIC ([5]; ATCC25923, 24 h): 2 µg/mL (≈ 0.928 µM) | MIC ([6]; K 88, 24 h): 8 µg/mL (≈ 3.71 µM) | MIC ([7]; ATCC12228, 24 h): 4 µg/mL (≈ 1.86 µM) | MIC ([8]; CMCC27853, 24 h): 8 µg/mL (≈ 3.71 µM) | MIC ([9]; EPEC O44:K74, 24 h): 32 µg/mL (≈ 14.8 µM) | MIC ([10]; CMCC50041, 24 h): 16 µg/mL (≈ 7.42 µM) | MIC ([11]; EPEC O144:K26, 24 h): 64 µg/mL (≈ 29.7 µM) | MIC ([12]; EPEC O78:K80, 24 h): 16 µg/mL (≈ 7.42 µM) | MIC ([13]; K 12, 24 h): 8 µg/mL (≈ 3.71 µM)
